Read-outs that look alike come from different tables or passages of the source.
How the values were obtained:
[1] = LD50 determination, tail vein injection; assay type: in vivo, mice; conditions: both sexes, KunMing (KM), mouse, in vivo, intravenous, KM mice, tail vein injection
Procedure: (§1) 1. Experimental animal: KunMing (KM) mice, provided by Shanghai Slac Laboratory Animal Co., Ltd., half and half of female and male, 6 groups, ten in each group, marked by bitter acid.
(§2) 2. […] Preparing medical solution of equal ratio: dissolving with 0.9% NaCl to prepare the medical solution with the concentration of 336 mg/7 ml, 316.96 mg/7 ml, 299.32 mg/7 ml, 282.52 mg/7 ml, 266.84 mg/7 ml, 252 mg/7 ml.
(§3) 3. Dosage for administration: with 0.5 ml/20 g bottom up.
(§4) 4. Means of administration: tail vein injection
(§5) 5. Experimental method: observing at 0.25 h, 0.5 h, 1 h, 2 h, 4 h, 24 h respectively after administration; then observing once every day 14 days; putting the mice still alive to death on the 15th day and recording the death rate.

KunMing (KM) mice = assay: LD50 determination, tail vein injection; assay type: in vivo; conditions: tail vein injection
Procedure: as §1, §2, §3, §4, §5

SMILES: COc1ccc(CCc2cc(OC)c(OC)c(OC)c2)cc1OS(=O)(=O)[O-].[Na+] [AS, 3,4,5,4′-tetramethoxyl-α,β-diphenylethane-3′-O-sodium sulphate]
- LD50 at 14 days ([1]; observed 14 days, read-out: LD50): 1080 mg/kg
- LD50 at 14 days ([1]; read-out: LD50 (Feiller correction) 95% confidence interval): 1030 to 1130 mg/kg
- Death rate in total % Total (KunMing (KM) mice; 900 mg/kg): 0%
- Death rate in total % ♀ (KunMing (KM) mice; 900 mg/kg): 0%
- Death rate in total % ♂ (KunMing (KM) mice; 900 mg/kg): 0%
- Deaths days 1 ♀ (KunMing (KM) mice; 900 mg/kg): 0
- Deaths days 1 ♂ (KunMing (KM) mice; 900 mg/kg): 0
- Deaths days 2 ♀ (KunMing (KM) mice; 900 mg/kg): 0
- Deaths days 2 ♂ (KunMing (KM) mice; 900 mg/kg): 0
- Deaths days 3 ♀ (KunMing (KM) mice; 900 mg/kg): 0
- Deaths days 3 ♂ (KunMing (KM) mice; 900 mg/kg): 0
- Deaths days 4 ♀ (KunMing (KM) mice; 900 mg/kg): 0
- Deaths days 4 ♂ (KunMing (KM) mice; 900 mg/kg): 0
- Deaths hours 0-4 ♀ (KunMing (KM) mice; 900 mg/kg): 0
- Deaths hours 0-4 ♂ (KunMing (KM) mice; 900 mg/kg): 0
- Death rate in total % Total (KunMing (KM) mice; 953 mg/kg): 0%
- Death rate in total % ♀ (KunMing (KM) mice; 953 mg/kg): 0%
- Death rate in total % ♂ (KunMing (KM) mice; 953 mg/kg): 0%
- Deaths days 1 ♀ (KunMing (KM) mice; 953 mg/kg): 0
- Deaths days 1 ♂ (KunMing (KM) mice; 953 mg/kg): 0
- Deaths days 2 ♀ (KunMing (KM) mice; 953 mg/kg): 0
- Deaths days 2 ♂ (KunMing (KM) mice; 953 mg/kg): 0
- Deaths days 3 ♀ (KunMing (KM) mice; 953 mg/kg): 0
- Deaths days 3 ♂ (KunMing (KM) mice; 953 mg/kg): 0
- Deaths days 4 ♀ (KunMing (KM) mice; 953 mg/kg): 0
- Deaths days 4 ♂ (KunMing (KM) mice; 953 mg/kg): 0
- Deaths hours 0-4 ♀ (KunMing (KM) mice; 953 mg/kg): 0
- Deaths hours 0-4 ♂ (KunMing (KM) mice; 953 mg/kg): 0
- Death rate in total % Total (KunMing (KM) mice; 1009 mg/kg): 40%
- Death rate in total % ♀ (KunMing (KM) mice; 1009 mg/kg): 20%
- Death rate in total % ♂ (KunMing (KM) mice; 1009 mg/kg): 60%
- Deaths days 1 ♀ (KunMing (KM) mice; 1009 mg/kg): 0
- Deaths days 1 ♂ (KunMing (KM) mice; 1009 mg/kg): 0
- Deaths days 2 ♀ (KunMing (KM) mice; 1009 mg/kg): 0
- Deaths days 2 ♂ (KunMing (KM) mice; 1009 mg/kg): 0
- Deaths days 3 ♀ (KunMing (KM) mice; 1009 mg/kg): 0
- Deaths days 3 ♂ (KunMing (KM) mice; 1009 mg/kg): 0
- Deaths days 4 ♀ (KunMing (KM) mice; 1009 mg/kg): 0
- Deaths days 4 ♂ (KunMing (KM) mice; 1009 mg/kg): 0
- Deaths hours 0-4 ♀ (KunMing (KM) mice; 1009 mg/kg): 1
- Deaths hours 0-4 ♂ (KunMing (KM) mice; 1009 mg/kg): 3
- Death rate in total % Total (KunMing (KM) mice; 1069 mg/kg): 80%
- Death rate in total % ♀ (KunMing (KM) mice; 1069 mg/kg): 80%
- Death rate in total % ♂ (KunMing (KM) mice; 1069 mg/kg): 80%
- Deaths days 1 ♀ (KunMing (KM) mice; 1069 mg/kg): 0
- Deaths days 1 ♂ (KunMing (KM) mice; 1069 mg/kg): 0
- Deaths days 2 ♀ (KunMing (KM) mice; 1069 mg/kg): 0
- Deaths days 2 ♂ (KunMing (KM) mice; 1069 mg/kg): 0
- Deaths days 3 ♀ (KunMing (KM) mice; 1069 mg/kg): 0
- Deaths days 3 ♂ (KunMing (KM) mice; 1069 mg/kg): 0
- Deaths days 4 ♀ (KunMing (KM) mice; 1069 mg/kg): 0
- Deaths days 4 ♂ (KunMing (KM) mice; 1069 mg/kg): 0
- Deaths hours 0-4 ♀ (KunMing (KM) mice; 1069 mg/kg): 4
- Deaths hours 0-4 ♂ (KunMing (KM) mice; 1069 mg/kg): 4
- Death rate in total % Total (KunMing (KM) mice; 1132 mg/kg): 60%
- Death rate in total % ♀ (KunMing (KM) mice; 1132 mg/kg): 60%
- Death rate in total % ♂ (KunMing (KM) mice; 1132 mg/kg): 60%
- Deaths days 1 ♀ (KunMing (KM) mice; 1132 mg/kg): 0

From US7632863B2, “3,4,5,4′-tetramethoxyl-α,β-diphenylethane-3′-O-sodium sulphate and its use” (The Jian Cell Biomedical Research Co., Ltd., priority 2007, dated 2009)
